Laboratory results: ChEMBL document CHEMBL1201862, “PubChem BioAssay data set” (2004)
Active and inactive are the calls of the source.

Assays:
INS1 = assay: INS-1E survival protection against cytokine death – cell-based, luminescence, retest, dose response (AID 449756); format: functional; details: Rattus norvegicus;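 note: cell death triggered by IL-1 beta plus TNF-alpha plus IFN-gamma mixture; protective hits raise ATP signal compared with cytokine alone wells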
Cytochrome P450 2D6 = Cytochrome P450 2D6 (Homo sapiens, UniProt P10635);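 note: CYP2D6 member of a cytochrome P450 panel assay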
Cytochrome P450 3A4 = Cytochrome P450 3A4 (Homo sapiens, UniProt P08684);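 note: CYP3A4 tested as one member of a cytochrome P450 panel screen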
[1] = NIH-3T3 fibroblast cytotoxicity, dose response, cytotoxicity control, cell-based, fluorescence, Alamar Blue, secondary assay (AID 2327); format: functional;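 note: NIH-3T3 mouse fibroblasts cultured with fluconazole at 8 µg/mL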
[2] = fluconazole-exposed Candida albicans growth modulators – fluorescence, retest, confirmation (AID 2467); format: functional, cell-based
[3] = molecular target: T1, Heat shock factor protein 1 (Mus musculus, UniProt P38532); assay: enhancement of HSF1-driven luciferase signal – cell-based, NIH3T3, luminescence, dose retest, confirmation (AID 435004); format: functional;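 note: stress induced by proteasome inhibitor MG132 added 30 min after compound; luciferase reporter driven by HSF1 response element in NIH3T3 cells; actives raise luminescence as potentiators of the MG132 stress response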
T1 sequence (P38532 whole entry): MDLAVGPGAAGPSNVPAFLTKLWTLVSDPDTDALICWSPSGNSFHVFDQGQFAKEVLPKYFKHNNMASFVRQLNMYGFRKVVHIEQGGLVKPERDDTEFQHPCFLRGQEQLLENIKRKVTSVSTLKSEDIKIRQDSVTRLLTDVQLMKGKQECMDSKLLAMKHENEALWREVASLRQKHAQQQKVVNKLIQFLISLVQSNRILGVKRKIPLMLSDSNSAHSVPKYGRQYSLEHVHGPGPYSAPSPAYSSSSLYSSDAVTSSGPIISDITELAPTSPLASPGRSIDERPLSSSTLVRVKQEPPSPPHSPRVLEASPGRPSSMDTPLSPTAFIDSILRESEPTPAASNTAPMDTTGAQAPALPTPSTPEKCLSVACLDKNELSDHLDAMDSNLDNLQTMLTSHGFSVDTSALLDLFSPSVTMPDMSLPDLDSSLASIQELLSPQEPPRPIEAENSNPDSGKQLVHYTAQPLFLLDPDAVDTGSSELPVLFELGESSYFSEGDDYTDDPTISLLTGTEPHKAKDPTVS

[4] = molecular target: T2, Replicative DNA helicase DnaB (Mycobacterium tuberculosis, UniProt P9WMR3); assay: DnaB intein splicing inhibitors, dose response, biochemical, cell-free fluorescence (AID 449749); format: functional
T2 sequence (P9WMR3 whole entry): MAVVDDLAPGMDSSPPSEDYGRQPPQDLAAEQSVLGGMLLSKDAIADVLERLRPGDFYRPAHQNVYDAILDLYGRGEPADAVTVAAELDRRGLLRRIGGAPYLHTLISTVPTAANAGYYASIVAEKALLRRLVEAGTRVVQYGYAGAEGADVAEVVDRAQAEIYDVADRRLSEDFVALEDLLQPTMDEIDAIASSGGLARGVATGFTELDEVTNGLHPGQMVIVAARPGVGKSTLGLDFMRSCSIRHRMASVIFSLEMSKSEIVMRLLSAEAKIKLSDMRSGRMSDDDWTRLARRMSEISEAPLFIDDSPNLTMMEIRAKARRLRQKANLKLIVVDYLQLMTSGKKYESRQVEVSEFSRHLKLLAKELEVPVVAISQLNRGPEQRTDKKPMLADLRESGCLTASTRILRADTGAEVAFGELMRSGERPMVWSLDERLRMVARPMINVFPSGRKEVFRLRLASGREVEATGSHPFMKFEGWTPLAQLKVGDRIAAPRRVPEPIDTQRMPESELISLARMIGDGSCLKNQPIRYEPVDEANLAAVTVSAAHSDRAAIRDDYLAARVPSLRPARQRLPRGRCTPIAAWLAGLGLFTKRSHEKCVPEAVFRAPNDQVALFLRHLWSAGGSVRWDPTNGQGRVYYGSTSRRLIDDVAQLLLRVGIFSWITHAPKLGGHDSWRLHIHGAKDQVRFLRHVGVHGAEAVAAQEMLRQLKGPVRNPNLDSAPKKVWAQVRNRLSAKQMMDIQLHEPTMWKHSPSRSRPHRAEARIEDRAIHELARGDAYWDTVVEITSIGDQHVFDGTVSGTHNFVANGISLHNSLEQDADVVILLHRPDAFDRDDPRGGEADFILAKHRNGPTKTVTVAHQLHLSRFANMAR

Protein RecA = molecular target: T3, Protein RecA (Mycobacterium tuberculosis, UniProt P9WHJ3); assay: Fluorescence Cell-Free Homogeneous Dose Retest to Identify Inhibitors of RecA-Intein Splicing Activity. [Related pubchem assays (depositor defined):AID2097, AID2223, AID489010, AID492950]; format: functional
T3 sequence (P9WHJ3 whole entry): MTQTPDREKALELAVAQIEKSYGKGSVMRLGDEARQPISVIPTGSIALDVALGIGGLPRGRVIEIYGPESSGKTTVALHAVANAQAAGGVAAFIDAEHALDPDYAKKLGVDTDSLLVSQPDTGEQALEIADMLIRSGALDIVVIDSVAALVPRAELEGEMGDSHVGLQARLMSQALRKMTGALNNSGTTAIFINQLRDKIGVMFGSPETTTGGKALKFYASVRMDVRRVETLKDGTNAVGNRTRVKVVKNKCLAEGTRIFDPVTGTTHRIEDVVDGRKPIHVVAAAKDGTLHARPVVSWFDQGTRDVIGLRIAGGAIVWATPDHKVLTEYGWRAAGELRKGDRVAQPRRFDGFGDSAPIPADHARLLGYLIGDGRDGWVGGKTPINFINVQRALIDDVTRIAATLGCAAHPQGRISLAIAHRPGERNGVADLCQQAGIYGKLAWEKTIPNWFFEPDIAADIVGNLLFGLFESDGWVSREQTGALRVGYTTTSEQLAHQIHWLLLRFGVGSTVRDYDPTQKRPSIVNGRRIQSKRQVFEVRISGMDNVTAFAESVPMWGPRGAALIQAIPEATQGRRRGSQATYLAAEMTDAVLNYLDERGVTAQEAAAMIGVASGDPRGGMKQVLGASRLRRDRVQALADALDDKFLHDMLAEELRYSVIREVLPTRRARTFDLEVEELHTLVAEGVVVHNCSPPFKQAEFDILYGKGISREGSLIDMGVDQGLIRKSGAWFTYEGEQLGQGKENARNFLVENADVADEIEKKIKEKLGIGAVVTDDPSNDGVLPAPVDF

[5] = Trypanosoma cruzi growth suppression in host cells – NIH3T3 host cells, beta-gal luminescence, confirmation (AID 2044); format: functional, cell-based;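 note: intracellular parasites grown in NIH/3T3 mouse fibroblasts as host cells; luminescent beta-galactosidase reporter signal from transgenic T. cruzi replicating inside host cells; inhibitors lower the luminescence signal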
[6] = NIH3T3 cell viability loss – ATP luminescence, mouse fibroblasts, counter-screen, dose response (AID 2010); format: functional, cell-based;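 note: cells exposed to compound for about 90 hours before reading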

Cytochrome P450 2D6, sequence (P10635 whole entry): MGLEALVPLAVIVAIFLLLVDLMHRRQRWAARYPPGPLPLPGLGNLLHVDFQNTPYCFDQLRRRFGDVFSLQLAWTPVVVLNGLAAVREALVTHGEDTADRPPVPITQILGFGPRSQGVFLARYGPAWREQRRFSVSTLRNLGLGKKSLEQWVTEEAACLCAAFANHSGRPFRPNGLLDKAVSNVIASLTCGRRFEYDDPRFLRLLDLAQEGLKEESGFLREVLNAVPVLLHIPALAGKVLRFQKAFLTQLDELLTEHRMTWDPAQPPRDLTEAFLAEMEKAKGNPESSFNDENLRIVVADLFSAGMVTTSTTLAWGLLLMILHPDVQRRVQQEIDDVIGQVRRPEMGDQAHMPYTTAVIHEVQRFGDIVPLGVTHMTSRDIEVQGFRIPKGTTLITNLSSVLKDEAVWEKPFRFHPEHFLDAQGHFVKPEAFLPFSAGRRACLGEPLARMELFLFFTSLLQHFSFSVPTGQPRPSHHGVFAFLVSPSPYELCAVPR
Cytochrome P450 3A4, sequence (P08684 whole entry): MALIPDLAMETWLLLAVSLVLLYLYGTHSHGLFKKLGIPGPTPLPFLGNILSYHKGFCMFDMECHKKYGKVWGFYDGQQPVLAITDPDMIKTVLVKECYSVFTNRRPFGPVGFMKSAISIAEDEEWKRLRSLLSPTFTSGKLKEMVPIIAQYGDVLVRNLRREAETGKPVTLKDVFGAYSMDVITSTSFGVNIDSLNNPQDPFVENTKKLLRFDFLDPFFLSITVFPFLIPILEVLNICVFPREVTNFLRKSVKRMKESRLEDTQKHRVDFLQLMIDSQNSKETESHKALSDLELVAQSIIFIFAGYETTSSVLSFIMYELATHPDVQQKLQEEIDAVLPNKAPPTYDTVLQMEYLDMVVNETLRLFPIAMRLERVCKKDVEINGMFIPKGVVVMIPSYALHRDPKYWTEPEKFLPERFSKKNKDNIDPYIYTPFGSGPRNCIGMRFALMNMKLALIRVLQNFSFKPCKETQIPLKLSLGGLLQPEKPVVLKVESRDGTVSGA

## Cc1ccc(OCc2cc(C(=O)N(C)Cc3cc(C4CC4)[nH]n3)no2)cc1C
INS1
  AC50: > 260 µM (inactive)

## C=CCn1c(SCC)nc2sc3c(c2c1=O)CCc1ccccc1-3
Cytochrome P450 2D6
  AC50: 11.2 µM (inconclusive)

## Cc1ccc(NC(=O)NCCCc2ccccc2)cc1
Cytochrome P450 3A4
  AC50: 7.94 µM (inconclusive)

## NC(=O)CC12CC3CC(C1)CC(CC(N)=O)(C3)C2
[1]
  EC50: > 160 µM (inactive)
[2]
  EC50: > 38 µM (not active)

## O=C(c1cc(Cl)c(=O)n(Cc2ccc(Cl)cc2)c1)N1CCOCC1
Cytochrome P450 3A4
  AC50: 28.2 µM (inconclusive)

## Cc1ccc(O)c(-c2cc3ccccc3[nH]2)c1
[1]
  EC50: > 160 µM (inactive)
[2]
  EC50: > 38 µM (not active)

## Cc1cc(O)c2n(Cc3ccccc3Cl)nc[n+]2n1
[3]
  EC50: > 260 µM (inactive)

## CC(=O)NC(c1ccco1)c1cc(F)c2cccnc2c1O (configuration not stated)
INS1
  AC50: 2.71 µM (active)

## COc1cc(C(c2c(C)n[nH]c2O)c2c(C)n[nH]c2O)ccc1OC(C)C
[4]
  AC50: 0.318 µM (active)
Protein RecA
  EC50: 0.223 µM (active)

## O=C(COc1ccccc1)Nc1cc(C(F)(F)F)ccc1N1CCCC1
Cytochrome P450 2D6
  AC50: 17.8 µM (inconclusive)

## CCC(C)c1ccc(Nc2ncccc2C#N)cc1 (configuration not stated)
Cytochrome P450 2D6
  AC50: 28.2 µM (inconclusive)

## CS/C(=C\[N+](=O)[O-])Nc1ccc(Cl)cc1
[1]
  EC50: > 150 µM (inconclusive)
[2]
  EC50: > 38 µM (not active)
[4]
  AC50: 23.2 µM (active)
Protein RecA
  EC50: 12.7 µM (active)

## COc1ccc(N2C(=O)C(Cl)=C(N3CCN(Cc4ccccc4)CC3)C2=O)cc1
[4]
  AC50: 8.12 µM (active)
Protein RecA
  EC50: 1.67 µM (active)

## COCC(=O)N1CCC[C@@]2(CCN(Cc3nccs3)C2)C1
Cytochrome P450 3A4
  AC50: 20 µM (inconclusive)

## O=c1oc(-c2ccccc2Cl)nc2ccsc12
[4]
  AC50: 14 µM (active)
Protein RecA
  EC50: 23.3 µM (active)

## Cc1nc2c(n1C1CCCCC1)C(=O)c1ccccc1C2=O
Cytochrome P450 2D6
  AC50: 22.4 µM (inconclusive)

## c1ccc2c(CC3NCCN3)cccc2c1
Cytochrome P450 2D6
  AC50: 3.98 µM (inconclusive)

## Oc1ccc2ccccc2c1/C=N\Cc1c(O)ccc2ccccc12
Cytochrome P450 2D6
  AC50: 3.98 µM (inconclusive)

## CCc1nc(SCC(=O)c2ccc(Cl)s2)c2oc3ccccc3c2n1
[3]
  EC50: 43.5 µM (active)

## Cc1nn(C(CC(=O)O)C(=O)O)c(C)c1Br (configuration not stated)
[3]
  EC50: > 260 µM (inactive)

## Cc1n[nH]c(O)c1C(c1ccc(Br)cc1)c1c(C)n[nH]c1O
[4]
  AC50: 0.588 µM (active)
Protein RecA
  EC50: 0.338 µM (active)

## CCCCCCC1CC(C)(/C(C)=N/NC(N)=O)OC1=O (configuration not stated)
Cytochrome P450 3A4
  AC50: 17.8 µM (inconclusive)

## CCn1c(C)c(/C=N/Nc2nc3ccccc3s2)c2ccccc21
[5]
  EC50: 2.5 µM (active)
Cytochrome P450 2D6
  AC50: 14.1 µM (inconclusive)
[6]
  EC50: > 60 µM (not active)

## C/C(CC(=O)Nc1ccc(F)cc1)=N\NC(=O)COc1ccccc1
[4]
  AC50: 10.3 µM (active)
Protein RecA
  EC50: 3.72 µM (active)

## COc1cc(/C=N/NC(=O)c2cccs2)ccc1OCc1ccccc1
Cytochrome P450 3A4
  AC50: 15.8 µM (inconclusive)
